Drawing on US20240002388A1, “PYRIMIDINONE COMPOUNDS AND USES THEREOF” (HUTCHISON MEDIPHARMA LIMITED, priority 2020, published 2024), this text covers IC50 for six compounds.

In this test the test system is L929 cell line (mouse fibroblastoma cell line). As to the kind of experiment: L929 cell viability assay (mTNF-α + Z-VAD-FMK induced necroptosis). It counts as cell-based. The settings on record: Mus musculus, L929, 20 h, L929 cells, mTNF-α 0.1 μg/mL + Z-VAD-FMK 5 μM, CellTiter-Glo. Put shortly: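 L929 cells (4.9×10^3/well) in 1% FBS MEM got compound (10 to 0.005 μM, 0.3% DMSO), then 5 μM Z-VAD-FMK for 1 h, then 0.1 μg/mL mTNF-α for 20 h at 37 °C. CellTiter-Glo luminescence was normalised between TNF/Z-VAD and unstimulated wells, and IC50 was curve-fitted.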
Consider `CC(C)n1ncc2cnc(C(=O)NC3(c4ccc(-c5cncn(C)c5=O)cc4)CC3)nc21` [Compound 1, 1-isopropyl-N-(1-(4-(1-methyl-6-oxo-1,6-dihydropyrimidin-5-yl)phenyl)cyclopropyl)-1H-pyrazolo[3,4-d]pyrimidine-6-carboxamide], for which the IC50 was 1250 nM.
In the case of `CC(C)Cc1nc(C(=O)NC2(c3ccc(-c4cncn(C(C)C)c4=O)cc3)CC2)ncc1Cl` [Compound 22] it was 28 nM.
In the case of `CC(C)n1cncc(-c2ccc(C3(NC(=O)c4nnc(Cc5ccccc5)o4)CC3)cc2)c1=O` [Compound 13] it was 195 nM.
Under `CC(C)n1cncc(-c2cc(F)c(C3(NC(=O)c4ncc5cnn(C(C)C)c5n4)CC3)c(F)c2)c1=O` [Compound 92] stands 3130 nM.
For the compound `Cn1cncc(-c2ccc(C3(NC(=O)c4ncc(Cc5ccccc5)o4)CC3)cc2)c1=O` [Compound 10], the IC50 was determined as 676 nM.
In the case of `CC(C)n1cncc(-c2ccc(C3(NC(=O)c4ncc5cnn(CC6CC6)c5n4)CC3)cc2F)c1=O` [Compound 73] it was 41 nM.
